Test results taken from patent US8470311B2, “Therapeutic agent for anaerobic diseases” (priority 2008, dated 2013).
“Also recorded” adds a separate entry of the source.

Tests used:
[1] = system: Human breast cancer cell line KPL-1; experiment: Tumor growth suppression by B. longum Re-105A/pBifiCD, 5-FC and maltose or lactulose, KPL-1 tumor-bearing nude mice; format: in vivo, nude mouse
[2] = system: Human breast cancer cell line KPL-1; settings: 10% maltose ip versus saline
[3] = system: Human stomach cancer cell line MKN45; experiment: Tumor growth suppression by B. longum Re-105A/pBifiCD, 5-FC and maltose, MKN45 tumor-bearing nude rats; format: in vivo, nude rat; settings: maltose 200 mg/body/day ip with bacteria and 5-FC

SMILES | Mice died during test ([1]; Group C: bacteria, 5-FC, 20% (w/v) lactulose 1 mL ip once a day, deaths Day 13 and Day 19) | Effect of lactulose, conclusion of the test ([1]; lactulose 200 mg/day ip with bacteria and 5-FC) | Effect of maltose on colonization and proliferation in tumor tissue [2] | Effect of maltose, conclusion of the test [3]
OC[C@H]1O[C@@H](O[C@@H]2[C@@H](CO)OC(O)(CO)[C@H]2O)[C@H](O)[C@@H](O)[C@H]1O (mixture of isomers) [lactulose] | two mice had died during the administration period | can enhance the antitumor effect of B. longum Re-105A/pBifiCD | – | –
OC[C@H]1O[C@H](O[C@H]2[C@H](O)[C@@H](O)[C@H](O)O[C@@H]2CO)[C@H](O)[C@@H](O)[C@@H]1O [Maltose] | – | – | effect in promoting specific colonization of B. longum Re-105A/pBifiCD in tumor tissue; also recorded: effect in promoting the proliferation and an effect of maintaining the proliferation of B. longum Re-105A/pBifiCD in tumor tissue | effect in promoting specific colonization of B. longum Re-105A/pBifiCD in tumor tissue, and an effect in promoting proliferation and an effect in maintaining proliferation in tumor tissue
